# Data published in ChEMBL document CHEMBL4138123, “Design, synthesis and biological evaluation of novel pyrazolochalcones as potential modulators of PI3K/Akt/mTOR pathway and inducers of apoptosis in breast cancer cells” (Eur J Med Chem, 2017).
# How the values were obtained:
# Type in all cases: functional
# MOLT-4 = test: Cytotoxicity against human MOLT4 cells assessed as growth inhibition after 48 hrs by sulforhodamine B assay; settings: MOLT-4, 48 h; for CC50: read-out: LC50 (the source's name)
# NCI-H460 = test: Cytotoxicity against human NCI-H460 cells assessed as growth inhibition after 48 hrs by sulforhodamine B assay; settings: NCI-H460, 48 h
# SF-539 [1] = test: Cytotoxicity against human SF539 cells assessed as growth inhibition after 48 hrs by sulforhodamine B assay; settings: SF-539, 48 h
# SK-MEL-28 = test: Cytotoxicity against human SK-MEL-28 cells assessed as growth inhibition after 48 hrs by sulforhodamine B assay; settings: SK-MEL-28, 48 h
# UACC-62 = test: Cytotoxicity against human UACC62 cells assessed as growth inhibition after 48 hrs by sulforhodamine B assay; settings: UACC-62, 48 h
# OVCAR-3 = test: Cytotoxicity against human OVCAR3 cells assessed as growth inhibition after 48 hrs by sulforhodamine B assay; settings: OVCAR-3, 48 h
# 786-0 = test: Cytotoxicity against human 786-0 cells assessed as growth inhibition after 48 hrs by sulforhodamine B assay; settings: 786-0, 48 h
# RXF 393 = test: Cytotoxicity against human RXF393 cells assessed as growth inhibition after 48 hrs by sulforhodamine B assay; settings: RXF 393, 48 h
# MDA-MB-231 [2] = test: Cytotoxicity against human MDA-MB-231 cells assessed as growth inhibition after 48 hrs by sulforhodamine B assay; settings: MDA-MB-231, 48 h
# ACHN = test: Cytotoxicity against human ACHN cells assessed as cell growth at 0.01 uM after 48 hrs by sulforhodamine B assay relative to control; settings: read-out: Activity
# UACC-257 = test: Cytotoxicity against human UACC257 cells assessed as cell growth at 0.01 uM after 48 hrs by sulforhodamine B assay relative to control; settings: UACC-257, 48 h, read-out: Activity
# SK-MEL-5 = test: Cytotoxicity against human SK-MEL-5 cells assessed as cell growth at 0.01 uM after 48 hrs by sulforhodamine B assay relative to control; settings: SK-MEL-5, 48 h, read-out: Activity
# SNB-19 = test: Cytotoxicity against human SNB19 cells assessed as cell growth at 0.01 uM after 48 hrs by sulforhodamine B assay relative to control; settings: SNB-19, 48 h, read-out: Activity
# HCT-116 = test: Cytotoxicity against human HCT116 cells assessed as cell growth at 0.01 uM after 48 hrs by sulforhodamine B assay relative to control; settings: HCT-116, 48 h, read-out: Activity
# K562 = test: Cytotoxicity against human K562 cells assessed as cell growth at 0.01 uM after 48 hrs by sulforhodamine B assay relative to control; settings: K562, 48 h, read-out: Activity
# SN12C = test: Cytotoxicity against human SN12C cells assessed as cell growth at 0.01 uM after 48 hrs by sulforhodamine B assay relative to control; settings: read-out: Activity
# RPMI-8226 = test: Cytotoxicity against human RPMI8226 cells assessed as cell growth at 0.1 uM after 48 hrs by sulforhodamine B assay relative to control; settings: RPMI-8226, 48 h, read-out: Activity
# NCI-H522 [3] = test: Cytotoxicity against human NCI-H522 cells assessed as cell growth at 0.1 uM after 48 hrs by sulforhodamine B assay relative to control; settings: NCI-H522, 48 h, read-out: Activity
# SF-539 [4] = test: Cytotoxicity against human SF539 cells assessed as cell growth at 0.1 uM after 48 hrs by sulforhodamine B assay relative to control; settings: SF-539, 48 h, read-out: Activity
# MDA-MB-435 = test: Cytotoxicity against human MDA-MB-435 cells assessed as cell growth at 0.1 uM after 48 hrs by sulforhodamine B assay relative to control; settings: MDA-MB-435, 48 h, read-out: Activity
# OVCAR-5 [5] = test: Cytotoxicity against human OVCAR5 cells assessed as cell growth at 0.1 uM after 48 hrs by sulforhodamine B assay relative to control; settings: OVCAR-5, 48 h, read-out: Activity
# UO-31 = test: Cytotoxicity against human UO31 cells assessed as cell growth at 0.1 uM after 48 hrs by sulforhodamine B assay relative to control; settings: UO-31, 48 h, read-out: Activity
# A549 = test: Cytotoxicity against human A549/ATCC cells assessed as cell growth at 1 uM after 48 hrs by sulforhodamine B assay relative to control; settings: A549, 48 h, read-out: Activity
# SW-620 = test: Cytotoxicity against human SW620 cells assessed as cell growth at 1 uM after 48 hrs by sulforhodamine B assay relative to control; settings: SW-620, 48 h, read-out: Activity
# MDA-MB-231 [6] = test: Cytotoxicity against human MDA-MB-231 cells assessed as cell growth at 1 uM after 48 hrs by sulforhodamine B assay relative to control; settings: MDA-MB-231, 48 h, read-out: Activity
# HCC 2998 [7] = test: Cytotoxicity against human HCC2998 cells assessed as cell growth at 10 uM after 48 hrs by sulforhodamine B assay relative to control; settings: HCC 2998, 48 h, read-out: Activity
# SF-268 = test: Cytotoxicity against human SF268 cells assessed as cell growth at 10 uM after 48 hrs by sulforhodamine B assay relative to control; settings: SF-268, 48 h, read-out: Activity
# OVCAR-5 [8] = test: Cytotoxicity against human OVCAR5 cells assessed as cell growth at 10 uM after 48 hrs by sulforhodamine B assay relative to control; settings: OVCAR-5, 48 h, read-out: Activity
# CAKI-1 = test: Cytotoxicity against human Caki1 cells assessed as cell growth at 10 uM after 48 hrs by sulforhodamine B assay relative to control; settings: CAKI-1, 48 h, read-out: Activity
# CCRF-CEM = test: Cytotoxicity against human CCRF-CEM cells assessed as cell growth at 100 uM after 48 hrs by sulforhodamine B assay relative to control; settings: read-out: Activity
# NCI-H522 [9] = test: Cytotoxicity against human NCI-H522 cells assessed as cell growth at 100 uM after 48 hrs by sulforhodamine B assay relative to control; settings: NCI-H522, 48 h, read-out: Activity
# HCC 2998 [10] = test: Cytotoxicity against human HCC2998 cells assessed as cell growth at 100 uM after 48 hrs by sulforhodamine B assay relative to control; settings: HCC 2998, 48 h, read-out: Activity
# U-251 = test: Cytotoxicity against human U251 cells assessed as cell growth at 100 uM after 48 hrs by sulforhodamine B assay relative to control; settings: U-251, 48 h, read-out: Activity
# MCF7 = test: Cytotoxicity against human MCF7 cells assessed as cell growth at 100 uM after 48 hrs by sulforhodamine B assay relative to control; settings: MCF7, 48 h, read-out: Activity
smiles,measurement,setting,value
COc1cc(-c2cc(/C=C/C(=O)c3ccc(F)c(F)c3)[nH]n2)cc(OC)c1OC,TGI,MOLT-4,9.09 µM
same,CC50,MOLT-4,> 100 µM
same,LC50,NCI-H460,80.4 µM
same,TGI,NCI-H460,8.24 µM
same,LC50 (concentration killing 50% of cells),SF-539 [1],70 µM
same,TGI,SF-539 [1],17.7 µM
same,LC50,SK-MEL-28,> 100 µM
same,TGI,SK-MEL-28,28.2 µM
same,LC50,UACC-62,35.3 µM
same,TGI,UACC-62,7.44 µM
same,LC50,OVCAR-3,43.6 µM
same,TGI,OVCAR-3,6.25 µM
same,LC50,786-0,> 100 µM
same,TGI,786-0,15.7 µM
same,LC50 (concentration killing 50% of cells),RXF 393,54.1 µM
same,TGI,RXF 393,6.34 µM
same,LC50,MDA-MB-231 [2],> 100 µM
same,TGI,MDA-MB-231 [2],4.58 µM
same,growth at 0.01 µM,ACHN,102%
same,growth at 0.01 µM,UACC-257,88%
same,growth at 0.01 µM,SK-MEL-5,98%
same,growth at 0.01 µM,SNB-19,89%
same,growth at 0.01 µM,HCT-116,101%
same,growth at 0.01 µM,K562,100%
same,growth at 0.01 µM,SN12C,95%
same,growth at 0.1 µM,RPMI-8226,90%
same,growth at 0.1 µM,NCI-H522 [3],99%
same,growth at 0.1 µM,SF-539 [4],97%
same,growth at 0.1 µM,MDA-MB-435,90%
same,growth at 0.1 µM,OVCAR-5 [5],93%
same,growth at 0.1 µM,UO-31,86%
same,growth at 1 µM,A549,82%
same,growth at 1 µM,SW-620,93%
same,growth at 1 µM,MDA-MB-231 [6],74%
same,growth at 10 µM,HCC 2998 [7],13%
same,growth at 10 µM,SF-268,17%
same,growth at 10 µM,OVCAR-5 [8],27%
same,growth at 10 µM,CAKI-1,12%
same,growth at 100 µM,CCRF-CEM,-4%
same,growth at 100 µM,NCI-H522 [9],-53%
same,growth at 100 µM,HCC 2998 [10],-11%
same,growth at 100 µM,U-251,-29%
same,growth at 100 µM,MCF7,-20%
COc1cc(-c2cc(/C=C/C(=O)c3ccc(Cl)c(Cl)c3)[nH]n2)cc(OC)c1OC,TGI,MOLT-4,40.6 µM
same,CC50,MOLT-4,> 100 µM
same,LC50,NCI-H460,> 100 µM
same,TGI,NCI-H460,36.6 µM
same,LC50 (concentration killing 50% of cells),SF-539 [1],57.8 µM
same,TGI,SF-539 [1],18.7 µM
same,LC50,SK-MEL-28,> 100 µM
same,TGI,SK-MEL-28,66 µM
same,LC50,UACC-62,> 100 µM
same,TGI,UACC-62,> 100 µM
same,LC50,OVCAR-3,> 100 µM
same,TGI,OVCAR-3,37.8 µM
same,LC50,786-0,> 100 µM
same,TGI,786-0,68 µM
same,LC50 (concentration killing 50% of cells),RXF 393,54.6 µM
same,TGI,RXF 393,12.8 µM
same,LC50,MDA-MB-231 [2],> 100 µM
same,TGI,MDA-MB-231 [2],> 100 µM
same,growth at 0.01 µM,ACHN,107%
same,growth at 0.01 µM,UACC-257,96%
same,growth at 0.01 µM,SK-MEL-5,98%
same,growth at 0.01 µM,SNB-19,100%
same,growth at 0.01 µM,HCT-116,102%
same,growth at 0.01 µM,K562,99%
same,growth at 0.01 µM,SN12C,98%
same,growth at 0.1 µM,RPMI-8226,95%
same,growth at 0.1 µM,NCI-H522 [3],89%
same,growth at 0.1 µM,SF-539 [4],94%
same,growth at 0.1 µM,MDA-MB-435,96%
same,growth at 0.1 µM,OVCAR-5 [5],99%
same,growth at 0.1 µM,UO-31,85%
same,growth at 1 µM,A549,93%
same,growth at 1 µM,SW-620,91%
same,growth at 1 µM,MDA-MB-231 [6],89%
same,growth at 10 µM,HCC 2998 [7],49%
same,growth at 10 µM,SF-268,60%
same,growth at 10 µM,OVCAR-5 [8],65%
same,growth at 10 µM,CAKI-1,62%
same,growth at 100 µM,CCRF-CEM,-15%
same,growth at 100 µM,NCI-H522 [9],-65%
same,growth at 100 µM,HCC 2998 [10],-50%
same,growth at 100 µM,U-251,-5%
COc1ccc(-c2cc(/C=C/C(=O)c3ccc(N)cc3)[nH]n2)cc1OC,GI50,MOLT-4,3.11 µM
same,TGI,MOLT-4,16.5 µM
same,CC50,MOLT-4,> 100 µM
same,GI50,NCI-H460,2.03 µM
same,LC50,NCI-H460,10.6 µM
same,TGI,NCI-H460,4.53 µM
same,GI50,SF-539 [1],1.73 µM
same,LC50 (concentration killing 50% of cells),SF-539 [1],7.19 µM
same,TGI,SF-539 [1],3.53 µM
same,GI50,SK-MEL-28,2.14 µM
same,LC50,SK-MEL-28,21.1 µM
same,TGI,SK-MEL-28,5.66 µM
same,GI50,UACC-62,3.11 µM
same,LC50,UACC-62,39.6 µM
same,TGI,UACC-62,10.9 µM
same,GI50,OVCAR-3,1.92 µM
same,LC50,OVCAR-3,9.14 µM
same,TGI,OVCAR-3,4.19 µM
same,GI50,786-0,1.88 µM
same,LC50,786-0,10.8 µM
same,TGI,786-0,4.39 µM
same,GI50,RXF 393,2.15 µM
same,LC50 (concentration killing 50% of cells),RXF 393,15.9 µM
same,TGI,RXF 393,5.12 µM
same,GI50,MDA-MB-231 [2],4.42 µM
same,LC50,MDA-MB-231 [2],53.9 µM
same,TGI,MDA-MB-231 [2],17.2 µM
same,growth at 0.01 µM,ACHN,93%
same,growth at 0.01 µM,UACC-257,90%
same,growth at 0.01 µM,SK-MEL-5,99%
same,growth at 0.01 µM,SNB-19,96%
same,growth at 0.01 µM,HCT-116,96%
same,growth at 0.01 µM,K562,99%
same,growth at 0.01 µM,SN12C,101%
same,growth at 0.1 µM,RPMI-8226,96%
same,growth at 0.1 µM,NCI-H522 [3],95%
same,growth at 0.1 µM,SF-539 [4],97%
same,growth at 0.1 µM,MDA-MB-435,98%
same,growth at 0.1 µM,OVCAR-5 [5],95%
same,growth at 0.1 µM,UO-31,99%
same,growth at 1 µM,A549,89%
same,growth at 1 µM,SW-620,95%
same,growth at 1 µM,MDA-MB-231 [6],98%
same,growth at 10 µM,HCC 2998 [7],-75%
same,growth at 10 µM,SF-268,-49%
same,growth at 10 µM,OVCAR-5 [8],-10%
same,growth at 100 µM,CCRF-CEM,-22%
same,growth at 100 µM,NCI-H522 [9],-92%
same,growth at 100 µM,HCC 2998 [10],-91%
same,growth at 100 µM,U-251,-96%
same,growth at 100 µM,MCF7,-58%
